We go through twelve compounds from ChEMBL document CHEMBL3259781 (J Med Chem, 2014).

In brackets after ≈: the same amount, converted by molar mass. Several values for one entry are separate records, joined by “and”; a condition that tells them apart may be missing. Equal entries are not always repeated. Some results are limits rather than exact numbers.

As a reminder, the Kd is the constant that tells how readily two partners part at equilibrium. High values mean lower affinity, low ones higher affinity. One may read the Ki as the dissociation constant of the complex between target and ligand, obtained from inhibition or displacement. As usually defined, the EC50 is the concentration needed to bring the measured effect to its halfway point. Low readings indicate a more potent agent, high ones a less potent agent. A word on the clearance: it is a measure of how efficiently the substance is removed, as volume per time. A higher clearance goes with a high capacity for elimination. The term half-life denotes how long it takes for the measured level to halve. By Vd is commonly meant a proportionality between amount in the body and measured concentration, not a real space. The term solubility denotes how much of the substance goes into solution per volume. The low end stands for a poorly soluble substance, the high end for a readily soluble substance. Usually inhibition in vivo stands for the share of the control response that was lost under treatment. In general, AUC refers to concentration integrated over time. High values mean high exposure, low ones low exposure.

Series [1] addresses T1, Adenosine receptor A2a (Rattus norvegicus, UniProt P30543). The series can be described thus: Binding affinity to adenosine receptor A2a in rat striatum. It is filed as tissue-based.
For series [2], the target named is T2, Adenosine receptor A3 (Homo sapiens, UniProt P0DMS8).
T2 sequence (P0DMS8 whole entry): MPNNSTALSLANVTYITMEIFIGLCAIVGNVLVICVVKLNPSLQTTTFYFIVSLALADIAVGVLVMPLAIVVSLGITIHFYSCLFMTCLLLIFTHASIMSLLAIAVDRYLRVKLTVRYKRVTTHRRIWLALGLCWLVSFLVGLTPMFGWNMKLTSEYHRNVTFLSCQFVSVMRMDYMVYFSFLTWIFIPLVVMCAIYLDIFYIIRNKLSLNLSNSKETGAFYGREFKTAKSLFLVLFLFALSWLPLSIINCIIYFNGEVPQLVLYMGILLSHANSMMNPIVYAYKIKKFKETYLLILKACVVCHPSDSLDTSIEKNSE

Series [3] concerns the target T3, Adenosine receptor A3 (Rattus norvegicus, UniProt P28647).
T3 sequence (P28647 whole entry): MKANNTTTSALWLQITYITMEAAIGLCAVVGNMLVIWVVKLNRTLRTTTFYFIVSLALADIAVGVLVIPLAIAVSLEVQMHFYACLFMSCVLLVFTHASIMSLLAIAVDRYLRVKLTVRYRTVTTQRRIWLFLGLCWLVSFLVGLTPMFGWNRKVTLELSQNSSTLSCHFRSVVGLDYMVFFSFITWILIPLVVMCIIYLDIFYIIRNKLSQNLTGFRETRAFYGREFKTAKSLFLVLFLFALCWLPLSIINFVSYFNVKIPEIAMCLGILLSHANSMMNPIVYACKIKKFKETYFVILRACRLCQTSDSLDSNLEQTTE
The series can be described thus: Inhibition of rat recombinant adenosine A3 receptor.

The target of series [4] is T4, Adenosine receptor A2b (Homo sapiens, UniProt P29275).
T4 sequence (P29275 whole entry): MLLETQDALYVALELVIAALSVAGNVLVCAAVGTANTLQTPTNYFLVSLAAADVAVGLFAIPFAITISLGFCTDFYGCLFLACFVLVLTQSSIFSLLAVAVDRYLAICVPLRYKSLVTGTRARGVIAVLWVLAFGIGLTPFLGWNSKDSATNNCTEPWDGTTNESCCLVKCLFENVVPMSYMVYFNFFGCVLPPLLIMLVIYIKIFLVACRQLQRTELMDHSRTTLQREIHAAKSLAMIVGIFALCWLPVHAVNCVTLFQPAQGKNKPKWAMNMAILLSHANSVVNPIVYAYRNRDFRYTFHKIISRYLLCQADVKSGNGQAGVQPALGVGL

Series [5] has as its target T1, Adenosine receptor A2a.
The species named for series [6] is Rattus norvegicus. Description: Systemic vasodilation in rat. It is filed as functional.
The species entered for series [7] is Rattus norvegicus. Description: Selectivity ratio of Ki for rat striatal adenosine A1 receptor to Ki for rat recombinant adenosine receptor A2a.
In series [8] the target is T5, Adenosine receptor A1 (Rattus norvegicus, UniProt P25099).
T5 sequence (P25099 whole entry): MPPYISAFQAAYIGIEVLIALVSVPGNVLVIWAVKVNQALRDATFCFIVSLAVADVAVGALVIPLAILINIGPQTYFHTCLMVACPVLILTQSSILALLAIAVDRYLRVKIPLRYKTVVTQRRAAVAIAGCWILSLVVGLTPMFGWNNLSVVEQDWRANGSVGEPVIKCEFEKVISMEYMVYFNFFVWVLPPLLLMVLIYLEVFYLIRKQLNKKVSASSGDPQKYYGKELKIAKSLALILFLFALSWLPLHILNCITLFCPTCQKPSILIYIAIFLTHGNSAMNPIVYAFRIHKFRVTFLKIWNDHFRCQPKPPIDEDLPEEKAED

The target in series [9] is T6, Adenosine receptor A2a (Homo sapiens, UniProt P29274).
A short description of series [10]: Plasma clearance in rat. The format is ADME, organism-based.
The nature of series [11]: Half life in rat. It is filed as ADME, organism-based. The note with it: in vivo.
The nature of series [12]: Half life in dog. It is filed as ADME, organism-based, Canis lupus familiaris. Conditions: in vivo.
A short description of series [13]: Plasma clearance in dog. The format is ADME, organism-based, Canis lupus familiaris.
Series [14] can be described thus: Volume of distribution in rat. The format is ADME, organism-based. The note with it: in vivo.
The nature of series [15]: Volume of distribution in dog. The note with it: in vivo. The format is ADME, organism-based, Canis lupus familiaris.
In series [16] the target is T7, Adenosine receptor A1 (Homo sapiens, UniProt P30542).
T7 sequence (P30542 whole entry): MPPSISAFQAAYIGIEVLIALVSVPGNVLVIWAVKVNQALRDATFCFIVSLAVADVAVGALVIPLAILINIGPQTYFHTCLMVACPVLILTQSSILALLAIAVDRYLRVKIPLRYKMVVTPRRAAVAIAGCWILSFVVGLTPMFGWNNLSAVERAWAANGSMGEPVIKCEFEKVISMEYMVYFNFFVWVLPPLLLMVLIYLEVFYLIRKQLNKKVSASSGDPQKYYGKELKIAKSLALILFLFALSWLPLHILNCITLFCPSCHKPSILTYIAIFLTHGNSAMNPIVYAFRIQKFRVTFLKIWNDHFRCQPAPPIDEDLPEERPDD

The nature of series [17]: Ratio of drug level from brain to plasma in iv dosed rat after 0.5 hrs. The format is ADME, organism-based. The note with it: read-out: BPR.
Series [18] is filed under the species Rattus norvegicus. Description: Anticataleptic activity in rat assessed as inhibition of haloperidol-induced catalepsy after 1 hr. The format is functional.
The species entered for series [19] is Rattus norvegicus. Description: Anticataleptic activity in rat assessed as inhibition of haloperidol-induced catalepsy after 2 hrs. The format is functional.
Series [20] concerns the target T1, Adenosine receptor A2a. The series can be described thus: Binding affinity to rat recombinant adenosine receptor A2a.
For series [21], the species on record is Homo sapiens. The series can be described thus: Selectivity ratio of Ki for human recombinant adenosine A1 receptor to Ki for human recombinant adenosine receptor A2a.
Series [22] is described as follows: Solubility of the compound at pH 7.4. The note with it: buffer. The format is physicochemical.
The subject of series [23] is Mus musculus. The series can be described thus: Anticataleptic activity in mouse assessed as inhibition of haloperidol-induced catalepsy at 10 mg/kg, po. The format is functional.
Series [24] relates to Plasma. Description: Drug level in rat plasma measured per ml at 10 mg/kg, po. Set-up: dose 10 mg/kg, route oral. Conditions: in vivo. The format is ADME, organism-based.
The test system of series [25] is Brain. The series can be described thus: Drug level in rat brain measured per gram at 10 mg/kg, po. It is filed as ADME, organism-based. Set-up: dose 10 mg/kg, route oral. Conditions: in vivo.
Series [26] has as its target T6, Adenosine receptor A2a. The source holds these as a separate data set.
A short description of series [27]: AUC in rat at 3 mg/kg, po. The format is ADME, organism-based. More on the design: dose 3 mg/kg, route oral. The note with it: plasma.
Series [28] concerns Rattus norvegicus. The series can be described thus: Anticataleptic activity in rat assessed as inhibition at 1 mg/kg, po after 1 hr. It is filed as functional.
Series [29] deals with Rattus norvegicus. The series can be described thus: Anticataleptic activity in rat assessed as inhibition at 1 mg/kg, po after 4 hrs. The format is functional.
Series [30] can be described thus: Ratio of drug level from brain to plasma in rat. The format is ADME. Conditions: read-out: BPR.
Series [31] is filed under the species Rattus norvegicus. The series can be described thus: Anticataleptic activity in rat assessed as minimum efficacious dose after 1 hr. Conditions: read-out: MED. The format is functional.
For series [32], the species on record is Rattus norvegicus. Description: Anticataleptic activity in rat assessed as minimum efficacious dose after 4 hrs. The format is functional. The note with it: read-out: MED.
Series [33] has as its system Rattus norvegicus. The series can be described thus: Anticataleptic activity in rat assessed as inhibition of haloperidol-induced catalepsy at 3 mg/kg, po after 30 mins. The format is functional. Conditions: 0.5 h.
In series [34] the target is T5, Adenosine receptor A1. Description: Binding affinity to rat recombinant adenosine A1 receptor.
Series [35] has as its target T2, Adenosine receptor A3. The series can be described thus: Binding affinity to human recombinant adenosine A3 receptor.
In series [36] the target is T6, Adenosine receptor A2a. The source holds these as a separate data set.

T6 sequence (P29274 whole entry): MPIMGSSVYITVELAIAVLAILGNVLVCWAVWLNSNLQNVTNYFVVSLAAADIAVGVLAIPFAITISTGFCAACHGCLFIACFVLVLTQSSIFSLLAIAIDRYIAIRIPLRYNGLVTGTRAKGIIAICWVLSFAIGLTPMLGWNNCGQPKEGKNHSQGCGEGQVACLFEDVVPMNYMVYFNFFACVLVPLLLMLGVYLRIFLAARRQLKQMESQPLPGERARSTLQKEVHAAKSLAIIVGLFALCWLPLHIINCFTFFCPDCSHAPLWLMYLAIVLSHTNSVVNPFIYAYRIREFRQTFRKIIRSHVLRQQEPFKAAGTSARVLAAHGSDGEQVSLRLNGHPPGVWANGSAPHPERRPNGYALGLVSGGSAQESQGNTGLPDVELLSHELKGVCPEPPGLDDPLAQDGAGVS
T1 sequence (P30543 whole entry): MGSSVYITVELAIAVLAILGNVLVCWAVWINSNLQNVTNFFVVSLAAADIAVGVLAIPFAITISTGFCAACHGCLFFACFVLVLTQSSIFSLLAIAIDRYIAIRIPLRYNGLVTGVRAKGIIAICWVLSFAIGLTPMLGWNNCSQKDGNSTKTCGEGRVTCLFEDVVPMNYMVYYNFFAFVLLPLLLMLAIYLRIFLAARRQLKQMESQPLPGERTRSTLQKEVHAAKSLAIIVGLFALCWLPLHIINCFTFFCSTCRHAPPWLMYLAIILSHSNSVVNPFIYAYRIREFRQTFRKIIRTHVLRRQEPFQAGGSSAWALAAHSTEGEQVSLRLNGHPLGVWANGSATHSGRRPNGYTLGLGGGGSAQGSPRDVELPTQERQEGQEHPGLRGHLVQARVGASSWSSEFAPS

With `Nc1nc2c(cnn2CCc2ccccc2)c2nc(-c3ccco3)nn12` [SCH-58261], the Kd in series [1] came to 0.0007 µM. Further, in series [2], the affinity corresponds to a Ki of 1.2 µM.
Consider `C#CCn1c(=O)c2c(nc(/C=C/c3cccc(OC)c3)n2C)n(CCCO)c1=O`, for which the results for the Ki in series [3], in series [4] and in series [5] were above 10 µM, 2.9 µM and 0.005 µM, respectively.
In series [6], `Nc1nc(N/N=C/C2CCCCC2)nc2c1ncn2[C@@H]1O[C@H](CO)[C@@H](O)[C@H]1O` [BINODENOSON] showed an ED50 of 0.31 mg.
`Nc1nc(NC[C@H]2CCCN2Cc2ccnc(Cl)c2)nc2nc(-c3ccco3)nn12`: the Ratio Ki in [7] turned out to be 63. In series [8], this compound registered a Ki above 0.25 µM.
Take `CCn1nnc([C@H]2O[C@@H](n3cnc4c(N)nc(N[C@H](CO)Cc5ccccc5)nc43)[C@H](O)[C@@H]2O)n1` [GW-328267]: the EC50 in series [9] was 0.009 µM.
With `COc1ccc(N2CCOCC2)c2sc(NC(=O)N3CCC(C)(O)CC3)nc12` [TOZADENANT], the clearance amounted to 11 mL/min/kg in [10] and 8 mL/min/kg in series [13]. Further, the values for the half-life in series [11] and in series [12] were 4 h and 2.2 h, respectively. In addition, the Vd amounted to 1.4 L/kg in series [14] and 1.2 L/kg in [15]. Also, the Ki in series [16] came out at 1.35 µM.
Regarding `Cc1cc(-c2nnc(N)nc2-c2ccccc2)cc(C(F)(F)F)n1`, the Kp at 0.5 h in series [17] turned out to be 3.2. The ED50 in series [18] and in series [19] was 0.2 mg/kg throughout. Also, in series [16], affinity was put at a Ki of 0.031 µM.
`Nc1nc(Nc2ccccc2)nc2c1ncn2[C@@H]1O[C@H](CO)[C@@H](O)[C@H]1O`: the inhibition constant (Ki) in series [20] came out at 0.1 µM.
In the case of `COC1CCN(c2cccc(-c3cc(NC(C)=O)nc(-n4nc(C)cc4C)n3)n2)CC1`, the Ratio Ki in series [21] is 193. The compound further showed a solubility in series [22] of 30 µg/mL (≈ 71.2 µM). In addition, in [23], the inhibition in vivo at 10 mg/kg amounted to 88%. Also, in [24], the Cp is 150 ng/mL. Moreover, the Drug uptake in [25] is on record as 560 ng/g. The results for the Ki in series [26] and in series [16] were 0.0004 µM and 0.0772 µM, respectively.
On to `COCCOc1ccc(N2CCN(CCn3ncc4c3nc(N)n3nc(-c5ccco5)nc43)CC2)cc1` [PRELADENANT], for which the Ratio Ki in series [21] was > 1660 and 1340. In series [27], this compound had an AUC of 1560 ng·h/mL. The results for the “inhibition (INH)” value in [28] (1 mg/kg) and in series [29] (1 mg/kg) were 77% and 70%, respectively. The inhibition in vivo at 1 mg/kg in [28] (Rattus norvegicus, po, 1 h) was found to be 75%; in series [29] (Rattus norvegicus, po, 4 h), 80%. Moreover, the Kp in [30] came out at 1. The minimal effective dose in series [31] and in series [32] was 0.3 mg/kg throughout. Also, the Ki in series [4] is above 1.7 µM; in series [26] it was 0.0006 µM; in [16], above 0.996 µM; in [2] it was above 1 µM.
For `Nc1nc(N2CCN3CCC[C@@H]3C2)cc2nc(-c3ccco3)nn12`, the Ratio Ki in [7] is 17. The inhibition in vivo at 3 mg/kg in series [33] is above 50%.
`O=C(Nc1ccc(F)cc1)Nc1ccc(Nc2nc(-c3ccccc3)nc3c2nnn3Cc2ccccc2)cc1`: the Ki in series [34] came to 0.107 µM; in series [35], 0.092 µM; in series [36], 0.167 µM.
